pIC50: −log10 of the molar value. The source made the active and inactive calls. No cut-off for these calls is given here.
Legend:
[1] = tested on: HCT-116; experiment: Anticancer activity against human HCT116 cells assessed as growth inhibition at 50 uM by CCK-8 assay; assay type: functional
[2] = tested on: HCT-116; experiment: Anticancer activity against human HCT116 cells assessed as growth inhibition by CCK-8 assay; assay type: functional, cell-based
[3] = tested on: HCT-116; experiment: Decrease in mitotic index in human HCT116 cells at 30 and 50 uM by flow cytometry; assay type: functional, cell-based; settings: TDE = time-dependent effect
[4] = tested on: HCT-116; experiment: Induction of apoptosis in human HCT116 cells at 30 uM after 30 hrs by annexin-V/7-AAD staining based flow cytometry; assay type: functional
[5] = tested on: HCT-116; experiment: Cell cycle arrest in human HCT116 cells assessed as increase in number of cells at G2/M phase at 20 and 30 uM after 20 hrs by propidium-iodide staining based flow cytometry; assay type: functional
[6] = tested on: HCT-116; experiment: Cell cycle arrest in human HCT116 cells assessed as decrease in number of cells at G0/G1 phase at 20 and 30 uM after 20 hrs by propidium-iodide staining based flow cytometry; assay type: functional
[7] = tested on: HCT-116; experiment: Induction of DNA damage in human HCT116 cells at G0/G1 phase at 20 and 30 uM after 24 hrs by gamma-H2AX-staining based-flow cytometry; assay type: functional, cell-based
[8] = tested on: HCT-116; experiment: Decrease in mitotic index in human HCT116 cells after 20 and 24 hrs by flow cytometry; assay type: functional, cell-based
[9] = tested on: HCT-116; experiment: Cell cycle arrest in human HCT116 cells assessed as decrease in number of cells at S phase at 20 and 30 uM after 20 hrs by propidium-iodide staining based flow cytometry; assay type: functional
[10] = tested on: HCT-116; experiment: Decrease in mitotic index in human HCT116 cells at 100 nM after 20 and 24 hrs by flow cytometry; assay type: functional, cell-based
[11] = tested on: HCT-116; experiment: Induction of DNA damage in human HCT116 cells at G0/G1 phase at 100 nM after 24 hrs by gamma-H2AX-staining based-flow cytometry; assay type: functional, cell-based
[12] = tested on: HCT-116; experiment: Induction of DNA damage in human HCT116 cells at G0/G1 phase at 20 nM after 24 hrs by gamma-H2AX-staining based-flow cytometry; assay type: functional, cell-based
[13] = tested on: HCT-116; experiment: Increase in mitotic index in human HCT116 cells at 20 nM after 20 and 24 hrs by flow cytometry; assay type: functional, cell-based
[14] = tested on: HCT-116; experiment: Induction of DNA damage in human HCT116 cells at G0/G1 phase at 30 uM after 24 hrs by gamma-H2AX-staining based-flow cytometry; assay type: functional, cell-based

CCOC(=O)c1csc(-c2csc(-c3csc([C@@H](C)NC(=O)OC(C)(C)C)n3)n2)n1
inhibition [1]: Active

C[C@H](NC(=O)OC(C)(C)C)c1nc(-c2nc(-c3nc(C(N)=S)cs3)cs2)cs1
pIC50 [2]: 4.42
inhibition at 50 µM [1]: 70%

C[C@@H](NC(=O)OC(C)(C)C)c1nc(-c2nc(-c3nc(C(N)=S)cs3)cs2)cs1
pIC50 [2]: 4.34
inhibition at 50 µM [1]: 70%

C[C@H](NC(=O)OC(C)(C)C)c1nc(-c2nc(-c3nc(C(N)=O)cs3)cs2)cs1
inhibition [3]: tde
Activity [4]: 60%
Activity [5]: Active
pIC50 [2]: 5.12
Activity [6]: Active
Activity [7]: Active
inhibition [8]: Dose-dependent effect
inhibition at 50 µM [1]: 70%
Activity [9]: Active

CCOC(=O)c1csc(-c2csc(-c3csc([C@H](C)NC(=O)OC(C)(C)C)n3)n2)n1
inhibition [1]: Active

COc1cccc2c1C(=O)c1c(O)c3c(c(O)c1C2=O)C[C@@](O)(C(=O)CO)C[C@@H]3O[C@H]1C[C@H](N)[C@H](O)[C@H](C)O1
inhibition [10]: Active
Activity [11]: Active

CC(=O)O[C@H]1C(=O)[C@@]2(C)[C@H]([C@H](OC(=O)c3ccccc3)[C@]3(O)C[C@H](OC(=O)[C@H](O)[C@@H](NC(=O)c4ccccc4)c4ccccc4)C(C)=C1C3(C)C)[C@]1(OC(C)=O)CO[C@@H]1C[C@@H]2O
Activity [12]: Active
Activity [13]: Active

C[C@@H](NC(=O)OC(C)(C)C)c1nc(-c2nc(-c3nc(C(N)=O)cs3)cs2)cs1
Activity [14]: Active
Activity [4]: 30%
pIC50 [2]: 4.65
inhibition at 50 µM [1]: 70%

— ChEMBL document CHEMBL3632493, “Design, synthesis and anticancer mechanistic studies of linked azoles” (Medchemcomm, 2015)
